Results on eleven compounds are retold here after ChEMBL document CHEMBL1201862, “PubChem BioAssay data set” (2004).

In general, IC50 refers to the point on the concentration scale where inhibition reaches its midpoint. By AC50 is commonly meant the concentration giving half of the maximal activity seen. In general, EC50 refers to the concentration giving half of the maximal effect.

Molecules are shown by their SMILES. Activity calls are given as the source filed them.

Test [1] has as its target Disintegrin and metalloproteinase domain-containing protein 17 (Homo sapiens, UniProt P78536). Put plainly: exosite inhibitors of ADAM17, dose response, biochemical (AID 743260).
A short description of test [2]: ADAM10 protease inhibitors, dose response, selectivity assay for ADAM17 exosite inhibitor project, biochemical, FRET peptide substrate, recombinant human ADAM10 (AID 743259).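 Also: ADAM10 enzyme cleaving a FRET peptide substrate.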
Test [3] relates to HeLa. Nature of the test: HeLa cell cytotoxicity, dose response, cytotoxicity control, ATP luminescence, cherry-pick samples (AID 687004). Format: functional, cell-based. The conditions noted are these: Homo sapiens.
Test [4] can be described thus: EDANS-DABCYL fluorescence interference, concentration series, dose response, artefact control for kallikrein-7 zymogen activator project, biochemical, fluorescence intensity, triplicate (AID 720493).
In test [5] the target is Kallikrein-7 (Homo sapiens, UniProt P49862). Nature of the test: Fluorescence Intensity-based biochemical primary high throughput dose response assay to identify activators of kallikrein-7 (K7) zymogen.
Test [6] is described as follows: inhibitors of clade B AD8 Env fusion, dose response, cell-based, cherry-pick (AID 652062).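 Also: luciferase signal from cell-cell fusion driven by HIV-1 clade B AD8 Env; potency is for inhibitors of fusion seen as a drop in luminescence.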 Format: functional.
Test [7] in a line: ZM109 Env clade C HIV-1 fusion inhibitors, dose response, HeLa effector, CEM target cells, luciferase, cherry-pick (AID 652058). In kind it is functional, cell-based.
A short description of test [8]: off-target signal loss in HeLa-CEM21 co-culture – HeLa F-luc CTL cells, cherry-picked, counter-screen for HIV-1 Env fusion inhibitor project, dose response (AID 652040).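 Also: potency for signal decrease marking cytotoxic or nonspecific inhibition.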 In kind it is functional, cell-based.
A short description of test [9]: CEM21 lymphoblast cell cytotoxicity, dose response, cytotoxicity control for viral fusion inhibitor project, CellTiter-Glo luminescence, cherry-picked (AID 652042).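 Also: potency for signal decrease meaning cytotoxicity.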 In kind it is functional, cell-based. A general note: In ATP-based viability assays light output follows the ATP content of the culture.
A short description of test [10]: inhibitors of HIV Env-driven cell fusion, dose response, cherry-pick (AID 652057). In kind it is functional, cell-based.
Test [11] can be described thus: non-specific cell cytotoxicity, dose response, cytotoxicity control for PAX8 inhibitor project, plate reader, dry powder samples (AID 743021). In kind it is functional, cell-based.
Test [12] addresses Paired box protein Pax-8 (Homo sapiens, UniProt Q06710). Put plainly: inhibitors of PAX8-driven TPO luciferase reporter, dose response, RMG-I cells, cherry-pick (AID 687027).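 Also: luciferase reporter driven by Pax8 target thyroperoxidase promoter measured by SteadyGlo luminescence.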 In kind it is functional, cell-based. Background: Reporter assays use an easily measured gene product as a stand-in for the process of interest.
Test [13] concerns the target T1, Microphthalmia-associated transcription factor (Homo sapiens, UniProt O75030).
T1 sequence (O75030 whole entry): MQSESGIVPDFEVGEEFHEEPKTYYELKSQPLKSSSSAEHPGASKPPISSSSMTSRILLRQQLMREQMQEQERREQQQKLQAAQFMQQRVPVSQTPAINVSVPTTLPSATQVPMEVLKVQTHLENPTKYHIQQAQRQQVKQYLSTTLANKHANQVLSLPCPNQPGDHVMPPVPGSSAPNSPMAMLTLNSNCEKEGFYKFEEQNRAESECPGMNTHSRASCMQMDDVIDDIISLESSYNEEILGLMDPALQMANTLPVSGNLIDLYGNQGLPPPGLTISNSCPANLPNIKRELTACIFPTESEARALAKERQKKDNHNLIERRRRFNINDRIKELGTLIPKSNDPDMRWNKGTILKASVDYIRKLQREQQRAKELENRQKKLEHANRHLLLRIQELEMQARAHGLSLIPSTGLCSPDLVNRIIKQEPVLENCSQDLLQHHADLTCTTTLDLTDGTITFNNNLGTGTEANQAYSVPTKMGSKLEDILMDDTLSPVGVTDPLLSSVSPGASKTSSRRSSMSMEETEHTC
Put plainly: TRPM1 promoter luciferase signal decrease, dose response, MITF inhibitor project, cell-based, SK-MEL-5, cherry-picked, set 3 (AID 493073).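 Also: SK-MEL-5 melanoma cells with luciferase driven by the MITF target TRPM1 promoter.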 In kind it is functional.

A short description of test [14]: HEK293T cell cytotoxicity, dose response, cytotoxicity control for HIV Vif inhibitor project, cherry-picks (AID 652208). In kind it is functional, cell-based.
Test [15] can be described thus: lymphoblastoid cell cytotoxicity, dose response, cytotoxicity control, plate reader, dry powder, set 2 (AID 624367). In kind it is functional.
A short description of test [16]: HepG2 cell cytotoxicity, dose response, cytotoxicity control, plate reader, dry powder samples (AID 1159569).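 Also: inhibitor potency with signal falling toward the positive control level.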 In kind it is functional, cell-based.
The nature of test [17]: HepG2 cell cytotoxicity, dose response, cytotoxicity control, cherry-picked samples (AID 1159577). Format: functional, cell-based.
The nature of test [18]: P. falciparum 3D7-ScDHODH growth inhibitors, dose response, SYBR Green, dry powder samples (AID 1159570).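 Also: parasite growth measured after 72 hours of compound exposure.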 In kind it is functional, cell-based.
A short description of test [19]: P. falciparum Dd2 growth inhibitors, dose response, SYBR Green, dry powder samples (AID 1159566).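 Also: potency for growth inhibition with lower SYBR green DNA signal.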 In kind it is functional, cell-based.
Test [20] can be described thus: P. falciparum ATP4 D1247Y mutant growth inhibitors, dose response, NITD609-resistant line, SYBR Green, dry powder (AID 1159571).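 Also: parasites synchronized at ring stage by sorbitol before testing.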 Format: functional, cell-based.
The nature of test [21]: P. falciparum Dd2 growth inhibitors, dose response, SYBR Green, cherry-picked samples (AID 1159567). Format: functional, cell-based.
Test [22] in a line: luciferase signal loss, tTA control fusion, HeLa F-luc tTA cells, dry powder, counter-screen for HIV Env fusion inhibitor project, dose response (AID 687021). In kind it is functional, cell-based.
The target of test [23] is Protein disulfide-isomerase (Homo sapiens, UniProt P07237). Nature of the test: PDI inhibitors, insulin turbidity readout, confirmation, biochemical, dry powder samples, set 2 (AID 652146).
The nature of test [24]: A Cell-Based Confirmatory Screen for Compounds that Inhibit VEEV, TC-83 (8). In kind it is functional.
Test [25] is described as follows: cytotoxicity in HeLa cells, dose response, cytotoxicity control, cell-based, 24 h, dry powder, set 2 (AID 651774). In kind it is functional.
The target of test [26] is Fatty acid synthase (Homo sapiens, UniProt P49327). Put plainly: FAS thioesterase domain inhibitors, SAR follow-up, biochemical, endpoint fluorescence intensity, powder samples (AID 652164). In kind it is functional.
Test [27] in a line: cytotoxicity dependent on PAX8, dose response, cell-based, plate reader, dry powder (AID 743049). In kind it is functional.
Test [28] in a line: A2780 ovarian cancer cell cytotoxicity, dose response, cytotoxicity control, plate reader, dry powder samples (AID 743046). Format: functional, cell-based.
Test [29] in a line: control 3'UTR Renilla luciferase suppression, dose response, counter-screen for Shn3 inhibitor project, cell-based, Clone20-Shn3RL, cherry-picked (AID 624133). In kind it is functional. (The purpose of a counterscreen is to sort out artefacts and off-target activity.)
Test [30] can be described thus: cytotoxicity in COV362 ovarian cancer cells, dose response, cytotoxicity control for PAX8 inhibitor project, cell-based, plate reader, dry powder, SA12 (AID 743144). In kind it is functional.
Test [31] can be described thus: PAX5 activity inhibitors, dose response, selectivity assay for PAX8 inhibitor project, cell-based, plate reader, dry powder samples (AID 743047).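 Also: HEK293 cells carrying a Pax5 driven CD19 promoter luciferase reporter; potency of inhibitors that lower reporter luminescence.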 Format: functional.
A short description of test [32]: Shn3 3'UTR reporter inhibitors, dose response, cell-based, Clone20 osteoblasts, firefly luciferase, cherry-picked (AID 624132).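 Also: firefly luciferase luminescence from reporter carrying the Shn3 3'UTR in osteoblasts.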 Format: functional.
The nature of test [33]: IGROV1 ovarian cancer cell cytotoxicity, dose response, PAX8 inhibitor project, plate reader, dry powder samples (AID 743043). In kind it is functional, cell-based. The conditions noted are these: IGROV-1.
Test [34] can be described thus: IOSE-T80 ovarian epithelial cell cytotoxicity, dose response, cytotoxicity control for PAX8 inhibitor project, plate reader, dry powder samples (AID 743045). Format: functional, cell-based.
A short description of test [35]: PAX2 cell-based inhibition, dose response, selectivity assay for PAX8 inhibitor project, plate reader, dry powder samples (AID 743048).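 Also: HEK293 cells carrying a WT1 promoter luciferase reporter driven by expressed Pax2; potency is for inhibition of Pax2 driven reporter signal.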 In kind it is functional.
Test [36] can be described thus: NIH:OVCAR-3 ovarian cancer cell cytotoxicity, dose response, PAX8 inhibitor project, plate reader, dry powder samples (AID 743044). Format: functional, cell-based.
In test [37] the test system is HEK293. Nature of the test: inhibitors of LMP1-driven NF-kB reporter, dose response, cell-based, HEK293, luciferase, cherry-pick (AID 588343). Format: functional. Particulars: Homo sapiens.
Test [38] in a line: cytotoxicity in COV434 cells, dose response, cytotoxicity control for PAX8 inhibitor project, cell-based, plate reader, dry powder, SA7 (AID 743145). Format: functional.
Test [39] has as its target Heat shock protein HSP 90-alpha (Homo sapiens, UniProt P07900). Format: functional, organism-based.
Test [40] is described as follows: HepG2 cell cytotoxicity, dose response, cytotoxicity control for Shn3 inhibitor project, CellTiter-Glo, cherry-picked (AID 624134). Format: functional, cell-based.
The nature of test [41]: cytotoxicity in OV-90 ovarian cancer cells, dose response, PAX8 inhibitor project, cell-based, plate reader, dry powder, SA8 (AID 743149). Format: functional.
Test [42] in a line: cytotoxicity in OVCAR4 cells, dose response, cytotoxicity control for PAX8 inhibitor project, cell-based, plate reader, dry powder, SA11 (AID 743150). In kind it is functional. Particulars: OVCAR-4.

Sequence of Paired box protein Pax-8 (Q06710 whole entry): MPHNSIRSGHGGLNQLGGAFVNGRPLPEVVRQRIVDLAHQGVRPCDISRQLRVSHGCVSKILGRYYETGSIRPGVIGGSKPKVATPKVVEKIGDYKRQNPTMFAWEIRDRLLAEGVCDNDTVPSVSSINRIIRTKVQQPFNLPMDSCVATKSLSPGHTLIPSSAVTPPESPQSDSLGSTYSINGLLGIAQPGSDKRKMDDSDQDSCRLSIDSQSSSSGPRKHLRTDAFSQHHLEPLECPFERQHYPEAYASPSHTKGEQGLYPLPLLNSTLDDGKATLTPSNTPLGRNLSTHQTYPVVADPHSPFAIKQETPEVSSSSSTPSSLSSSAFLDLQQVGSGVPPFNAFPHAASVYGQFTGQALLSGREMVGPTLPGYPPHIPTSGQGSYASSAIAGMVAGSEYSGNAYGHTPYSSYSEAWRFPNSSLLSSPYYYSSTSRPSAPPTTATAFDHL
Sequence of Disintegrin and metalloproteinase domain-containing protein 17 (P78536 whole entry, the tested form may be a part): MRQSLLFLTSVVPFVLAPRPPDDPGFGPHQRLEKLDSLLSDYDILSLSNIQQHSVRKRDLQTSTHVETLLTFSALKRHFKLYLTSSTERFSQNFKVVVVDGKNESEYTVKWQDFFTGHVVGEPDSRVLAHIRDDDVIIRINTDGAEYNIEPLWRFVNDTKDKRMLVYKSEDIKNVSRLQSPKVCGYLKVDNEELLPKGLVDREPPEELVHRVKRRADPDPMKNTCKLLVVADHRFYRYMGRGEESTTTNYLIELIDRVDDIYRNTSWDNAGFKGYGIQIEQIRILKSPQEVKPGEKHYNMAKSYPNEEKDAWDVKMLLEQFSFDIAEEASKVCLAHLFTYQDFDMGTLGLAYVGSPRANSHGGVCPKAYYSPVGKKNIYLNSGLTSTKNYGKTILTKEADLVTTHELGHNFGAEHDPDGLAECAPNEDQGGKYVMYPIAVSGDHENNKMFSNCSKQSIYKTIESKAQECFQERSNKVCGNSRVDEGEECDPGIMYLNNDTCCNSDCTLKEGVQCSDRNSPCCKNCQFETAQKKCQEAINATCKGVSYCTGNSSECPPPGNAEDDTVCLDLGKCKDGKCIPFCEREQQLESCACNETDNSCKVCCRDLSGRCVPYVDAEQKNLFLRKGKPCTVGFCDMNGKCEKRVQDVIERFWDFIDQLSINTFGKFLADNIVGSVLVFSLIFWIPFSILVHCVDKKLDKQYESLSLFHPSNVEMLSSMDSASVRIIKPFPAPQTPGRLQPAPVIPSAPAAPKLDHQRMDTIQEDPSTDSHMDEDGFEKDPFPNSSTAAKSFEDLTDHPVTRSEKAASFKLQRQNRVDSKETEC
Sequence of Fatty acid synthase (P49327 whole entry, the tested form may be a part): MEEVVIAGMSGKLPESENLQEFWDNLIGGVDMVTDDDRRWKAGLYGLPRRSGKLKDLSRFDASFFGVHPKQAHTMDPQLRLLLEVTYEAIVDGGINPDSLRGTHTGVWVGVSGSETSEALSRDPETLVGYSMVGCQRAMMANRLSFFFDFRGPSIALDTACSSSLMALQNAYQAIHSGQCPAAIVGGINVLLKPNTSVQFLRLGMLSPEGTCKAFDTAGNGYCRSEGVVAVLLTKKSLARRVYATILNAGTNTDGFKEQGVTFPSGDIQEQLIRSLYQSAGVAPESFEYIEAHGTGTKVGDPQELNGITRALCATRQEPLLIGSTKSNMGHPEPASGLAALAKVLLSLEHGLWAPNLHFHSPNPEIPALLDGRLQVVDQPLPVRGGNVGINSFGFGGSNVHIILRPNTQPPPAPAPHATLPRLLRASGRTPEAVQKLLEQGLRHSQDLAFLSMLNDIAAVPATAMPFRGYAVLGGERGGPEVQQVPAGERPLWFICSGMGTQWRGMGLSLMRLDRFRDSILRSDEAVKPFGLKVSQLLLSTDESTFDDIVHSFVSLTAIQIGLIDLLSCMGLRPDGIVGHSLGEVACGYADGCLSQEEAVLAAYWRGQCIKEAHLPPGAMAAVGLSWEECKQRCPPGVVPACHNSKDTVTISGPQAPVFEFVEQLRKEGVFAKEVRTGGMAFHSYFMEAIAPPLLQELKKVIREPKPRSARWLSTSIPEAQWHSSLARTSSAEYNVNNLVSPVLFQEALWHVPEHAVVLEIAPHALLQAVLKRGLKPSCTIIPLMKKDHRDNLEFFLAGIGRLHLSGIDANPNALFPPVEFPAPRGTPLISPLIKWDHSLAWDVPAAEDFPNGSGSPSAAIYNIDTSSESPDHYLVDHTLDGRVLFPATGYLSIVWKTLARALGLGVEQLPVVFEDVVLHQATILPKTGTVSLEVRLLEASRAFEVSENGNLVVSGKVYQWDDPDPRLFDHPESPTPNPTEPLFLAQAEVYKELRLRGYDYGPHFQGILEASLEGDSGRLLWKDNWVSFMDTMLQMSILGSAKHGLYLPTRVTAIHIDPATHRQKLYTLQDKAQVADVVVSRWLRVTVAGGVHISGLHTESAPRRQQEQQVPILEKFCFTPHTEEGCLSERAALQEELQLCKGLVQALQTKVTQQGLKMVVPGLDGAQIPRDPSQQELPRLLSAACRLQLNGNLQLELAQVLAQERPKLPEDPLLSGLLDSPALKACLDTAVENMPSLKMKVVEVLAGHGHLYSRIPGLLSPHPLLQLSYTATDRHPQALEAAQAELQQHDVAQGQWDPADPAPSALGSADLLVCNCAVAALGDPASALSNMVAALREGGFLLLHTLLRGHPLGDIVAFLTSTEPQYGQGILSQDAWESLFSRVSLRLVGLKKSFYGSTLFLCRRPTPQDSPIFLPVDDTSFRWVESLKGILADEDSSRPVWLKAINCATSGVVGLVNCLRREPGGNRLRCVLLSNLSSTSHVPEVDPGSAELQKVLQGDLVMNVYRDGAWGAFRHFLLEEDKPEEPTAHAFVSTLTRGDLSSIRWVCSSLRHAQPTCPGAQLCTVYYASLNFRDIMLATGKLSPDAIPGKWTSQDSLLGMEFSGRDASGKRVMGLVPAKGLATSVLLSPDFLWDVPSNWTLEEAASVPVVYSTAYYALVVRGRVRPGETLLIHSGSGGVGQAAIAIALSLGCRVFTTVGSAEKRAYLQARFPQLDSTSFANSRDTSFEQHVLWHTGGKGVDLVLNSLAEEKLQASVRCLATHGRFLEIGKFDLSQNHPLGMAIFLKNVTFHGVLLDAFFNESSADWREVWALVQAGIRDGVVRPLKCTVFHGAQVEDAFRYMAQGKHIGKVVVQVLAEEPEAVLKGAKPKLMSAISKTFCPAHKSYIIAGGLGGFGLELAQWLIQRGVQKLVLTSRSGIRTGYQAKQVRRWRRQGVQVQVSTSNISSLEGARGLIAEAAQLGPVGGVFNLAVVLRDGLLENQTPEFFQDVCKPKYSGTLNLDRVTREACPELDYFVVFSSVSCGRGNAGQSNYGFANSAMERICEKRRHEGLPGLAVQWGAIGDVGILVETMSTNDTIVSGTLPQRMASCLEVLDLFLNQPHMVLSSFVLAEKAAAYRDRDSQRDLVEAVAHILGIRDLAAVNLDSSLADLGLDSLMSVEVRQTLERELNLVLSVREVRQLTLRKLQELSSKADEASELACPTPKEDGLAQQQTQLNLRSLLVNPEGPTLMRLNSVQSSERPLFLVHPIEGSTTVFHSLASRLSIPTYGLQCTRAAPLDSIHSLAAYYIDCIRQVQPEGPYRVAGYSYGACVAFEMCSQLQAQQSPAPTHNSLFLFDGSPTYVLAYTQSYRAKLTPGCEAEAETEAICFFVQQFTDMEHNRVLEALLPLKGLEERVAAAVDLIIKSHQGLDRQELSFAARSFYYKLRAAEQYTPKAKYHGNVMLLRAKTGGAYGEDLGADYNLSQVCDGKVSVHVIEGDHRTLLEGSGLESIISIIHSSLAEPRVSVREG
Sequence of Protein disulfide-isomerase (P07237 whole entry): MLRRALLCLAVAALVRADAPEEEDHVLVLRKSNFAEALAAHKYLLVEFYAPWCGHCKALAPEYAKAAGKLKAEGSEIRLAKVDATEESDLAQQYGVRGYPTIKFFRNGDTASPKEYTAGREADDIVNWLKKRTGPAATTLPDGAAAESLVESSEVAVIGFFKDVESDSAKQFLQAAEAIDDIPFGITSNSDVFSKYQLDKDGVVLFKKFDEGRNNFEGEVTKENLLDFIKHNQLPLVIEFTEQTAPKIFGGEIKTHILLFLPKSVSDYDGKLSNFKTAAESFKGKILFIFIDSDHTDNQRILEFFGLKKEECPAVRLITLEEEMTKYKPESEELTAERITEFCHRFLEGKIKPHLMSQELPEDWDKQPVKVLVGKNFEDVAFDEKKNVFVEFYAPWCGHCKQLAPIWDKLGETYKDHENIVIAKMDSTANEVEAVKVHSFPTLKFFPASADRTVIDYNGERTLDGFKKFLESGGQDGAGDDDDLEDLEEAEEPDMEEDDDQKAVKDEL
Sequence of Kallikrein-7 (P49862 whole entry, the tested form may be a part): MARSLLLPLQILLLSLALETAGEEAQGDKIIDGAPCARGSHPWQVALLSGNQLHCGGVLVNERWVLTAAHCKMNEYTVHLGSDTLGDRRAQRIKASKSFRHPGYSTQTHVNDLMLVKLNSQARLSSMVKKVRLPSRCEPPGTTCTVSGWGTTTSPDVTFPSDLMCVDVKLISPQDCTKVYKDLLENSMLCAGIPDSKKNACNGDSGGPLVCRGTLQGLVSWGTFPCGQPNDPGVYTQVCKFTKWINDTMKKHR

Regarding `COc1ccc(CNC(=O)CN(Cc2ccc(Cl)cc2)S(=O)(=O)c2ccccc2)cc1`, the IC50 in [1] and in test [2] was > 69.5 µM (inactive) each time.
As for `O=C1CCC(C(=O)Nc2cccc(C(F)(F)F)c2)N1` (stereo not drawn), in test [3], the AC50 is > 52 µM (inactive).
For the compound `CNc1cc(C)c(C#N)c2nc3ccccc3n12`, the concentration for a half-maximal effect (EC50) in [4] is > 2.58 µM (active); in [5] it was 3.77 µM (active).
For `OCC1OC(n2cnc3c(NCc4ccco4)ncnc32)C(O)C1O` (stereo not drawn), the AC50 in [6] is 6.9 µM (active); in test [7] it was 6.03 µM (active); in test [8], 36.8 µM (active); in test [9], 2.94 µM (active); in test [10], 7.32 µM (active); in test [11], 1.38 µM (active). For the same compound, the AC50 was 2.41 µM (active) in test [12], 3.88 µM (active) in [13] and 13.8 µM (active) in test [14].
On to `N#C[C@H]1[C@H](c2ccc(C#Cc3ccccc3F)cc2)[C@H](CO)N1C(=O)c1cccnc1`, for which the AbsAC35 in test [15] was 50.14 µM. In addition, the AC50 in test [16] is > 100 µM (inactive); in [17] it was > 39 µM (inactive); in test [18] it was 1.83 µM (active); in [19] it was 1.59 µM (active); in test [20], 1.54 µM (active); in test [21] it was 1.58 µM (active).
Take `CC1(C)CC(NC(=O)C(=O)Nc2ccc(Cl)cc2)CC(C)(C)N1`: the AC50 in test [22] was > 70 µM (inactive).
Turning to `C=CCOc1ccc(CN2CCC(CCOc3ccccc3)(C(=O)OCC)CC2)cc1Cl`, the AC50 in test [23] was > 30 µM (inactive).
On to `O=c1c2cc([N+](=O)[O-])ccc2nc(C2CCNCC2)n1-c1ccccc1`, for which the concentration for half-maximal inhibition (IC50) in test [24] is 3.88 µM (active).
Consider `CNC(=O)Cc1ccc(-c2ccccc2)cc1`, for which the AC50 in [25] is > 70 µM (inactive).
As for `CN(C)S(=O)(=O)c1ccc(-c2csc(NC(=O)C3CCC3)n2)cc1`, in test [26], the IC50 is 1.36 µM (active).
As for `CC(=O)NC(c1ccc(Cl)cc1)c1ccc2cccnc2c1O` (stereo not drawn), the AC50 in test [27] is 8.52 µM (active); in test [28] it was 20.8 µM (active); in test [29], 0.977 µM (active); in [30] it was 7.17 µM (active); in [31], 2.31 µM (active); in test [32] it was 0.299 µM (active). Further, the AC50 in test [33] was 7.12 µM (active); in [34], 4.43 µM (active); in [35] it was 1.57 µM (active); in test [36], 4.57 µM (active); in test [37] it was 4.08 µM (active); in test [38] it was 5.09 µM (active). For the same compound, the concentration at half-maximal activity (AC50) in test [39] was 2.68 µM (active); in [40], 1.47 µM (active); in test [12], 2.09 µM (active); in test [41], 5.27 µM (active); in test [42] it was 18.1 µM (active).
